According to publication PMC11589570, “Critical assessment of LC3/GABARAP ligands used for degrader development and ligandability of LC3/GABARAP binding pockets” (Nature Communications, 2024):

Assays:
LC3 = molecular target: LC3; design: method as in Dong et al.; settings: higher protein and compound concentrations; ref Dong et al.; read-out: Kd (ITC); cited from earlier work
[1] = test system: live cells of the growth assay; assay: Analysis of images of the live cell growth assay (cell morphology); assay type: cell-based; settings: consistent with G2/M arrest
Method: Using RPE1 and U2OS cells, cell growth was monitored in live cells over a time course of 72 h after treatment with the respective compounds.
Cell growth assay: Cell confluence (phase) from RPE1 (hTERT RPE-1, ATCC CLR_4000) or U2OS (ATCC, HTB-96) cell lines were monitored over time with the IncuCyte S3 (Sartiorius, Germany) in 384-well plates in 50 ul DMEM media, supplemented with 10% Fetal Bovine Serum (FBS) 1% penicillin/Streptomycin and incubated 24 h before treatment. […] Cell confluence is represented as % of area covered by cells. Each data point represents the average ratio or confluence obtained from three individual wells of the plate.

GABARAPL2 = GABARAPL2 (Homo sapiens, UniProt P60520); assay: biochemical
GABARAPL2, sequence (P60520 whole entry): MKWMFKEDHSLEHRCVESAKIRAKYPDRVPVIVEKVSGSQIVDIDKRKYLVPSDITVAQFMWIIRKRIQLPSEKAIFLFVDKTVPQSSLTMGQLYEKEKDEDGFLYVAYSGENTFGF

| Structure (SMILES) | Kd (LC3) [µM] | cell morphology in live cell images [1] | Kd (GABARAPL2) [µM] |
| --- | --- | --- | --- |
| Cc1ccc(C(=O)N(CCCN)[C@@H](c2nc3cc(Cl)ccc3c(=O)n2Cc2ccccc2)C(C)C)cc1 [compound 3, (R)-N-(3-aminopropyl)-N-(1-(3-benzyl-7-chloro-4-oxo-3,4-dihydroquinazolin-2-yl)−2-methylpropyl)−4-methylbenzamide] | ~12 | increased number of rounded cells |  |
| O=C1Nc2ccc(I)cc2C1=Cc1cc(Br)c(O)c(Br)c1 [compound 4] |  |  | 15 to 30 |
